Consider four molecules from patent publication US12594276B2, “Inhibitors of human immunodeficiency virus replication” (ViiV Healthcare UK (No.5) Limited, priority 2024, dated 2026).

Data set [1] has as its system recombinant NL4-3 virus (nef section replaced with Renilla luciferase gene) in MT-2 cells. Briefly: HIV cell culture assay (antiviral activity, luciferase readout). Type of data set: cell-based. The following applies: Renilla, NL43, MT-2 cells infected for 4-5 days with recombinant NL4-3 Renilla luciferase virus. In outline: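 EC50 was derived by median-effect fitting of Renilla luciferase signal from MT-2 cells. These cells were infected for 4–5 days with NL4-3 reporter virus (nef partly replaced by luciferase; made in 293T cells) in the presence of serially diluted compound. Activity was quantified with a live-cell luciferase substrate.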

A short description of data set [2]: Compound cytotoxicity, XTT-based colorimetric assay. Type of data set: cell-based. As to conditions: human; uninfected MT2 cells, day 4, XTT; read-out: CC50. In a few lines:
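Cells seeded as for the antiviral assay but left uninfected (MT2). Compound exposure continued to day 4. XTT reagent added and colour read. CC50 calculated.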
A general note: Tetrazolium dyes change colour on reduction, which living cells bring about.

A word on the EC50: it is the midpoint of the concentration-response curve. As a reminder, the CC50 is the concentration that lowers cell viability or growth by half.

Turning to `Cc1cc(C2(CF)CCC(F)(F)CC2)nc2nc([C@H](Cc3cc(F)cc(F)c3)NC(=O)Cn3nc(C(F)F)c4c3C(F)(F)[C@@H]3C[C@H]43)n(-c3ccc(Cl)c4c(NS(C)(=O)=O)nn(CCN5C[C@H](F)C[C@H](F)C5)c34)c(=O)c12` (atropisomer, axis not shown; (P)) [Example 556, N-[(1S)-1-[(3P)-3-(4-chloro-1-{2-[(3R,5S)-3,5-difluoropiperidin-1-yl]ethyl}-3-methanesulfonamido-1H-indazol-7-yl)-7-[4,4-difluoro-1-(fluoromethyl)cyclohexyl]-5-methyl-4-oxo-3H,4H-pyrido[2,3-d]pyrimidin-2-yl]-2-(3,5-difluorophenyl)ethyl]-2-[(2S,4R)-9-(difluoromethyl)-5,5-difluoro-7,8-diazatricyclo[4.3.0.0^2,^4]nona-1(6),8-dien-7-yl]acetamide], the EC50 in data set [1] is 0.014 nM. The CC50 at 4 days in data set [2] was > 20 nM.

On to `Cc1cc(C2(CF)CCC(F)(F)CC2)nc2nc([C@H](Cc3cc(F)cc(F)c3)NC(=O)Cn3nc(C4CC4)c4c3C[C@@H]3C[C@H]43)n(-c3ccc(Cl)c4c(NS(C)(=O)=O)nn(CCN5C[C@@H](C)O[C@@H](C)C5)c34)c(=O)c12` (atropisomer, axis not shown; (P)) [Example 557, N-[(1S)-1-[(3P)-3-(4-chloro-1-{2-[(2R,6S)-2,6-dimethylmorpholin-4-yl]ethyl}-3-methanesulfonamido-1H-indazol-7-yl)-7-[4,4-difluoro-1-(fluoromethyl)cyclohexyl]-5-methyl-4-oxo-3H,4H-pyrido[2,3-d]pyrimidin-2-yl]-2-(3,5-difluorophenyl)ethyl]-2-[(2S,4S)-9-cyclopropyl-7,8-diazatricyclo[4.3.0.0^2,^4]nona-1(6),8-dien-7-yl]acetamide], for which the 50% effective concentration (EC50) in data set [1] was 0.007 nM. For the same molecule, the half-maximal cytotoxic concentration (CC50) at 4 days in data set [2] is > 20 nM.

In the case of `COCCCn1nc(NS(C)(=O)=O)c2c(Cl)ccc(-n3c([C@H](Cc4cc(F)cc(F)c4)NC(=O)Cn4nc(C(F)F)c5c4C(F)(F)[C@@H]4C[C@H]54)nc4nc(C5CCC(F)(F)CC5)cc(NCCC(C)(C)OC)c4c3=O)c21` (atropisomer, axis not shown; (P)) [Example 565, N-[(1S)-1-[(3P)-3-[4-chloro-3-methanesulfonamido-1-(3-methoxypropyl)-1H-indazol-7-yl]-7-(4,4-difluorocyclohexyl)-5-[(3-methoxy-3-methylbutyl)amino]-4-oxo-3H,4H-pyrido[2,3-d]pyrimidin-2-yl]-2-(3,5-difluorophenyl)ethyl]-2-[(2S,4R)-9-(difluoromethyl)-5,5-difluoro-7,8-diazatricyclo[4.3.0.0^2,^4]nona-1(6),8-dien-7-yl]acetamide], the EC50 in data set [1] turned out to be 0.011 nM. Moreover, in data set [2], the CC50 at 4 days was > 20 nM.

Consider `COCCCn1nc(NS(C)(=O)=O)c2c(Cl)ccc(-n3c([C@H](Cc4cc(F)cc(F)c4)NC(=O)Cn4nc(C(F)F)c5c4C(F)(F)[C@@H]4C[C@H]54)nc4nc(C5CCC(F)(F)CC5)cc(NCC(=O)N5CCCCC5)c4c3=O)c21` (atropisomer, axis not shown; (P)) [Example 566, N-[(1S)-1-[(3P)-3-[4-chloro-3-methanesulfonamido-1-(3-methoxypropyl)-1H-indazol-7-yl]-7-(4,4-difluorocyclohexyl)-4-oxo-5-{[2-oxo-2-(piperidin-1-yl)ethyl]amino}-3H,4H-pyrido[2,3-d]pyrimidin-2-yl]-2-(3,5-difluorophenyl)ethyl]-2-[(2S,4R)-9-(difluoromethyl)-5,5-difluoro-7,8-diazatricyclo[4.3.0.0^2,^4]nona-1(6),8-dien-7-yl]acetamide], for which the EC50 in data set [1] came to 0.079 nM. The CC50 at 4 days in data set [2] is > 20 nM.
